Ends that are not written are not given here.
Tested on: carbohydrate overload model of acute laminitis in horses
Experiment: Oligofructose (carbohydrate) overload model of acute laminitis, LTNF peptide study KLM-15-02
Type: in vivo
Settings: all horses that received the intravenous peptide, 2 to 8 grams
Description: This communication is a brief report on the results obtained from the recent clinical study to evaluate the potential prophylactic and/or therapeutic properties of KLM's proprietary application of a 15 amino acid sequence termed LTRF in saline when employed in a carbohydrate overload model of acute laminitis in horses.
In compliance with the methods outlined in protocol KLM-15-02, nine healthy, mature horses between 4 and 9 years of age were evaluated for enrollment in the clinical study. […] Preliminary examinations were deemed normal for all candidates. Eligible candidates underwent a formal acclimation period of 10 days, during which feed, water, housing and management were identical to conditions of the actual study. On Days −3, −2, and −1, oligofructose was added to the a.m. grain ration of each candidate at a dosage of 1 gram per kg body weight.
Prior to induction on Day 0, a baseline lameness exam was repeated and captured on video. […]
At regular, 6-hr intervals after induction, the general health of each horse was assessed, a lameness exam was repeated, and rectal temperature was monitored. Once diarrhea had begun, each horse's hydration status was monitored at 2- to 4-hr intervals by assessing its packed cell volume (PCV; hematocrit) and plasma total protein concentration. […]

Sequence: LKAMDPTPPLWIKTE [LTNF peptide, Leu-Lys-Ala-Met-Asp-Pro-Thr-Pro-Pro-Leu-Trp-Ile-Lys-Thr-Glu]
- signs of immune reaction or toxicity: no signs of immune reaction or toxicity
